US12509451B2, “Heteroaryl amide inhibitors of CD38” (NAPA THERAPEUTICS LTD., priority 2020, dated 2025)

Columns and labels:
[1] = molecular target: T1, recombinant human CD38 Protein (Homo sapiens, UniProt P28907); assay: Fluorescence-based NAD+ cyclase activity assay with human recombinant CD38 protein (Assay 2); type: biochemical; conditions: read-out: Assay 2 Arithmetic mean IC50
T1 construct: purchased R&D System
T1 sequence (P28907 1-300): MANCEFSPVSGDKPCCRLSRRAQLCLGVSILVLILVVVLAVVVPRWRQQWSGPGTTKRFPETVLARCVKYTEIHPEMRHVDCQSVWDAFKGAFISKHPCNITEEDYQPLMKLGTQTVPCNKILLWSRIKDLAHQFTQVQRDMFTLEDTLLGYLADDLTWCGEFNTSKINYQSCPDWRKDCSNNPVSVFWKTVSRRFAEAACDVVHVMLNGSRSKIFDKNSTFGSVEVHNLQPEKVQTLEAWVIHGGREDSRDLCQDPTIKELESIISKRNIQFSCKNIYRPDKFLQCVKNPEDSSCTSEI
Procedure: This protocol was modified from the de Oliveira et al., 2018 reference, supra.
(§1) NAD+ cyclase activity of the human recombinant CD38 protein treated with test compounds was measured using a fluorescence-based assay. Briefly, recombinant human CD38 Protein (R&D System) was resuspended in 44 μl/well of Sucrose-Tris Buffer (Sucrose 0.25 M, Tris pH 7.4 40 mM) and plated in a 96-well black plate (CORNING) at a density of 125 ng/well.
Each test compound was received in a powder state and dissolved in DMSO as a 25 mM stock solution. Each test compound was serially diluted in order to generate a dose-response curve. The dilution series of each test compound in DMSO was prepared at 50 times the concentrations to be assayed. Each test compound was diluted to generate a 5-fold dilution series of 8 concentrations from 100 μM to 32 nM in order to assay 8 final concentrations ranging from 2 μM to 0.64 nM. One μl of the 50× concentration compound series was added to each well of the plate containing 125 ng of protein in Sucrose-Tris buffer.
The reaction was started adding nicotinamide guanine dinucleotide (NGD+) (Sigma Aldrich) to reach a final concentration of 150 µM. The samples were excited at 337-15 nm, and the emission of fluorescence was measured at 442-20 nm at 37° C. every minute for 1 hr in a Clariostar microplate reader (BMG LABTECH). NAD+ cyclase activity was calculated as the slope of the linear portion of the fluorescence-time curve using the MARS data analysis software (BMG LABTECH). The data were uploaded in the Collaborative Drug Design (CDD) Software, and for each compound the IC50 was calculated by the software. For each plate, the z-factor was also calculated as a plate quality using the CDD software.

[2] = molecular target: T1, recombinant human CD38 Protein; assay: Fluorescence-based NAD+ hydrolase activity assay with human recombinant CD38 protein (Assay 3); type: biochemical; conditions: read-out: Assay 3 Arithmetic mean IC50
Procedure: This protocol was modified from the following references (Muller et al. (1983); (Schultz et al. (2018); (Matalonga et al. (2017); and de Oliveira et al. (2018), supra.
as §1, with “hydrolase” for “cyclase”, “10” for “125”
(§2) Each test compound was received in a powder state and dissolved in DMSO as a 25 mM stock solution. Each test compound was serially diluted in order to generate a dose-response curve. The dilution series of each test compound in DMSO was prepared at 50× the concentrations to be assayed. Each test compound was diluted to generate a 5-fold dilution series of 8 concentrations from 20 μM to 0.256 nM in order to assay 8 final concentrations ranging from ranging from 400 nM to 25.6 pM. One μl of the 50× concentration compound series was added to each well of the plate containing 10 ng protein in Sucrose-Tris buffer.
The reaction was started adding nicotinamide 1,N^6-etheno-adenine dinucleotide (Sigma Aldrich) to reach a final concentration of 80 µM. The samples were excited at 321-15 nm and the emission of fluorescence was measured at 410-20 nm at 37° C. every minute for 1 hr in a Clariostar® microplate reader (BMG LABTECH). NAD+ hydrolase activity was calculated as the slope of the linear portion of the fluorescence-time curve using the MARS data analysis software (BMG LABTECH). The data were uploaded in the Collaborative Drug Design (CDD) Software and for each compound the IC50 was calculated by the software. […] For each plate, the z-factor was also calculated as a plate quality using the CDD software.

[3] = molecular target: T2, CD38 NAD+ hydrolase activity in NH7-dCas9 cells (Jurkat clone) (Homo sapiens, UniProt P28907); assay: Fluorescence-based NAD+ hydrolase activity assay with human T cell line NH7-dCas9 cells-Jurkat clone (Assay 1); conditions: read-out: Assay 1 Arithmetic mean IC50
T2 construct: The assay utilized CD38 expressing NH7-dCas9 cells (Jurkat clone); host or cells: NH7-dCas9 cells (Jurkat clone)
T2 sequence (P28907 1-300): T1 sequence (P28907 1-300)
Procedure: For the modified assay, the performance validation criteria of the assay as a High Throughput Screening (HTS): Z-factor within the plate was greater than 0.89 (optimal HTS z-factor >0.5) and the Intra-plate, inter-plate and day to day variability (CV) was less than 20%.
NAD+ hydrolase activity of a human T cell line treated with test compounds was measured using a fluorescence-based assay. NH7-dCas9 cells (Jurkat clone) were provided by the Weissman Lab (UCSF 1700 4th St., Byers Hall, Room 403B, San Francisco, CA 94158-2330). Briefly, cells were centrifuged, resuspended in 44 μl PBS/10^6 cells and plated in a 96 well black plate (CORNING) at a density of 1×10^6 per well.
as §2, with “at 50 times” for “at 50×”, “from” for “from ranging from”, “containing 1×10^6 cells” for “containing 10 ng protein”, “in PBS.” for “in Sucrose-Tris buffer.”
Each plate had the following intra plate controls: 3 wells containing cells treated with vehicle only (DMSO), 3 wells of cells treated with the reference compound 78c at a final concentration of 50 nM and 2 wells containing only PBS (used as a background value).
(§3) The reaction was started by adding nicotinamide 1,N^6-etheno-adenine dinucleotide (Sigma Aldrich) to reach a final concentration of 80 µM. The samples were excited at 321-15 nm, and the emission of fluorescence was measured at 410-20 nm at 37° C. every minute for 1 hr in a Clariostar® microplate reader (BMG LABTECH). NAD+ hydrolase activity was calculated as the slope of the linear portion of the fluorescence-time curve using the MARS data analysis software (BMG LABTECH). The data were uploaded in the Collaborative Drug Design (CDD) Software and for each compound the IC50 was calculated by the software. Each compound was tested in 3 independent experiments on 3 separate days to establish the reproducibility of the results. For each plate, the z-factor was also calculated as a plate quality using the CDD software.

[4] = molecular target: T3, recombinant mouse CD38 Protein (Mus musculus, UniProt P56528); assay: Fluorescence-based NAD+ hydrolase activity assay with mouse recombinant CD38 protein (Assay 5); type: biochemical; conditions: read-out: Assay 5 Arithmetic mean IC50
T3 construct: purchased R&D System
T3 sequence (P56528 1-304): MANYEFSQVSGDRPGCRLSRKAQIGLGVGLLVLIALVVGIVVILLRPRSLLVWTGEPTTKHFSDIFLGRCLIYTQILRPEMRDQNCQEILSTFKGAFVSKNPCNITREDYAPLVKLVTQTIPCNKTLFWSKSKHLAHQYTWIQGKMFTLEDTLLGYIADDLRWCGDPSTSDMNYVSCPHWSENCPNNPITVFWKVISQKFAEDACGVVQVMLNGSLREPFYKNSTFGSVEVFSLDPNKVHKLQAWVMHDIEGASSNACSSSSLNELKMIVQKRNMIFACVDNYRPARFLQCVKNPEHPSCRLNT
Procedure: This protocol was modified from the following references: Muller et al. (1983); Schultz et al. (2018); Matalonga et al. (2017); and de Oliveira et al. (2018), supra.
as §1, with “hydrolase” for “cyclase”, “mouse” for “human”, “96 well” for “96-well”, “2.5” for “125”
Each test compound was received in a powder state and dissolved in DMSO as a 25 mM stock solution. Each test compound was serially diluted in order to generate a dose-response curve. The dilution series of each test compound in DMSO was prepared at 50 times the concentrations to be assayed. Each test compound was diluted to generate a 5-fold dilution series of 8 concentrations from 20 μM to 0.256 nM in order to assay 8 final concentrations ranging from 400 nM to 25.6 pM. One μl of the 50× concentration compound series was added to each well of the plate containing 2.5 ng of protein in Sucrose-Tris buffer.
Each plate had the following intra plate controls: 3 wells containing cells treated with vehicle only (DMSO), 3 wells of cells treated with the reference compounds 78c at a final concentration of 50 nM and 2 wells containing only Sucrose-Tris buffer (used as a background value).
as §3, with “started” for “started by”, “nm” for “nm,”, “Clariostar Microplate®” for “Clariostar® microplate”

Compound	IC50 [1] [nM]	IC50 [2] [nM]	IC50 [3] [nM]	IC50 [4] [nM]
NC(=O)c1cc(NC(=O)c2cccc(-n3ccnc3)n2)ccn1 [Compound 17]		1 to 50	1 to 50	1 to 50
CCN(C(C)=O)c1ccc(NC(=O)c2cccc(-n3ccnc3)n2)cn1 [Compound 19]		1 to 50	1 to 50	1 to 50
O=C(O)c1ccc(NC(=O)c2cccc(-n3ccnc3)n2)cn1 [Compound 21]		1 to 50	1 to 50	1 to 50
CNC(=O)c1cc(NC(=O)c2cccc(-n3ccnc3)n2)ccn1 [Compound 23]		1 to 50	1 to 50	
O=C(Nc1ccccn1)c1cccc(-n2ccnc2)n1 [Compound 25]		51 to 1000	51 to 1000	
Cc1cncn1-c1cccc(C(=O)Nc2cccnc2)n1 [Compound 26]		51 to 1000	51 to 1000	51 to 1000
Cc1cc(C(=O)Nc2ccncc2)nc(-c2cncn2C)c1 [Compound 44]		1 to 50	< 1	1 to 50
O=C(Nc1ccc(C(F)(F)F)nc1)c1cccc(-c2cncs2)n1 [Compound 46]		1 to 50		
Cc1ccc(C(=O)Nc2cccnc2)nc1-n1ccnc1 [Compound 58, 6-(1H-imidazol-1-yl)-5-methyl-N-(pyridin-3-yl)picolinamide]		51 to 1000	51 to 1000	1 to 50
COc1ccc(C(=O)Nc2cccnc2)nc1-n1ccnc1 [Compound 60]		51 to 1000	51 to 1000	1 to 50
COc1ccc(-n2ccnc2)nc1C(=O)Nc1cccnc1 [Compound 63]		1 to 50	1 to 50	1 to 50
Nc1ccc(-n2ccnc2)nc1C(=O)Nc1ccncc1 [Compound 64, 3-amino-6-(1H-imidazol-1-yl)-N-(pyridin-4-yl)picolinamide]		1 to 50	< 1	< 1
Nc1ccc(-n2ccnc2)nc1C(=O)Nc1ccnc(C(F)(F)F)c1 [Compound 66]		1 to 50	< 1	< 1
O=C(Nc1cccnc1)c1ccnc(-n2ccnc2)n1 [Compound 69]		1 to 50	< 1	

Now from value to compound:

IC50 [1] [nM]	IC50 [2] [nM]	IC50 [3] [nM]	IC50 [4] [nM]	Compound
51 to 1000	< 1	< 1		Cc1cc(NC(=O)c2cccc(-n3ccnc3)n2)cc(C#N)n1 [Compound 4]
51 to 1000	< 1	< 1		O=C(Nc1cc(F)nc(F)c1)c1cccc(-n2ccnc2)n1 [Compound 5]
51 to 1000	1 to 50	< 1		CCOC(=O)c1cc(NC(=O)c2cccc(-n3ccnc3)n2)ccn1 [Compound 6]
	1 to 50	1 to 50		COCCNc1cc(NC(=O)c2cccc(-n3ccnc3)n2)ccn1 [Compound 10]
	< 1	< 1	< 1	Nc1ccc(-n2ccnc2)nc1C(=O)Nc1ccnc(F)c1 [Compound 65]
	< 1	< 1		CNc1cc(C(=O)Nc2cccnc2)nc(-n2ccnc2)c1 [Compound 68]
1000 to 10000	< 1	< 1		O=C(Nc1cccnc1)c1cncc(-n2ccnc2)n1 [Compound 70]
